In patent US6884882B1, “2′-deoxyuridine derivatives and hydrogels formed therewith” (Postech Foundation, priority 2004, dated 2005):
“Also recorded” adds a separate entry of the source.

How the values were obtained:
Type in all cases: physicochemical
[1] = Observation of inner structures of gels by Scanning Electron Microscopy (SEM); conditions: for gel structure in SEM image: gel prepared by the method of Example 2, lyophilized, platinum coated
Method: The aggregation mode of the gel formed with the 2′-deoxyurindine derivative was observed by Scanning Electron Microscopy (SEM). Gels were prepared using the 2′-deoxyuridine derivatives prepared in 1-4), 1-7), 1-9) and 1-10) by the method of Example 2. Each of the gels was heated to obtain a sol, and a small amount of the sol was converted to a gel cake, which was lyophilized under a vacuum at the liquid nitrogen temperature to remove the solvent, coated with platinum, and examined by SEM.

[2] = Gelation test (stable-to-inversion-of-the-container method) in water; conditions: for State: 2 wt % in water, dissolved by sonication and heating, cooled at room temperature for 20 minutes, vessel inverted; for Minimum gel concentration: minimum concentration at which a gel was formed in water; for gelation ability: in water, judged from Table 1
Method: In order to determine the extent of gelation of the 2′-deoxyuridine derivative of the present invention, the “stable-to-inversion-of-the-container” method was performed (see F. M. Menger and K. L Caran., J. Am. Chem. Soc., 122, 11679, 2000).
Each of 2′-deoxyuridine derivatives prepared in Example 1 was mixed with water in an amount corresponding to a concentration of 2 wt %, completely dissolved by sonication and heating, and then cooled at room temperature for 20 minutes to induce the formation of a gel. Then, the vessel containing the gel was inverted to see whether or not the content poured out.
Further, the minimum concentration at which a gel was formed (hereinafter, minimum gel concentration) was measured for each of the 2′-deoxyuridine derivatives.

[3] = Analysis of thermal stability of hydrogel by differential scanning calorimetry; conditions: DSC, 30 to 220° C., FIG. 3
Method: In order to examine the thermal stability of the 2′-deoxyuridine derivative of the present invention, 1 to 4 mg of the derivative prepared in 1-9) was shaped in the form of a pellet, and differential scanning calorimetry was performed therewith at a temperature ranging from 30 to 220° C.

| SMILES | gel structure in SEM image [1] | State [2] | Minimum gel concentration [2] | gelation ability [2] | melting point peak of the gel phase [3] | melting point peak of the solid phase [3] | gel structure in SEM image on lowering the concentration ([1]; concentration lowered from 2 to 0.25 wt %, FIG. 2) |
| --- | --- | --- | --- | --- | --- | --- | --- |
| Cc1ccc(Cn2cc(-c3cn([C@H]4C[C@H](O)[C@@H](CO)O4)c(=O)[nH]c3=O)nn2)cc1 [1-7), 2′-deoxy-5-[1-((p-methylphenyl)methyl)-1H-1,2,3-triazol-4-yl]-uridine] | lamellar structure | White opaque gel | 0.6 wt % | good gelation ability | – | – | – |
| CCc1ccc(Cn2cc(-c3cn([C@H]4C[C@H](O)[C@@H](CO)O4)c(=O)[nH]c3=O)nn2)cc1 [1-9), 2′-deoxy-5-[1-((p-ethylphenyl)methyl)-1H-1,2,3-triazol-4-yl]-uridine] | fiber structure | White opaque gel | 0.2 wt % | good gelation ability; also recorded: best gelation ability | 201 °C | 200 °C | looser fiber structure having a larger void volume |
| CCCCc1ccc(Cn2cc(-c3cn([C@H]4C[C@H](O)[C@@H](CO)O4)c(=O)[nH]c3=O)nn2)cc1 [1-10), 2′-deoxy-5-[1-((p-butylphenyl)methyl)-1H-1,2,3-triazol-4-yl]-uridine] | lamellar structure | White opaque gel | 0.8 wt % | good gelation ability | – | – | – |

Second part, led by results:

| gel structure in SEM image [1] | State [2] | Minimum gel concentration [2] | gelation ability [2] | melting point peak of the gel phase [3] | melting point peak of the solid phase [3] | SMILES | gel structure in SEM image on lowering the concentration ([1]; concentration lowered from 2 to 0.25 wt %, FIG. 2) |
| --- | --- | --- | --- | --- | --- | --- | --- |
| lamellar structure | White opaque gel | 0.3 wt % | – | – | – | O=c1[nH]c(=O)n([C@H]2C[C@H](O)[C@@H](CO)O2)cc1-c1cn(Cc2ccccc2)nn1 [1-4), 2′-deoxy-5-[1-(phenylmethyl)-1H-1,2,3-triazol-4-yl]-uridine] | – |
| – | Unstable white opaque gel | 3 wt % | – | – | – | Cc1ccccc1Cn1cc(-c2cn([C@H]3C[C@H](O)[C@@H](CO)O3)c(=O)[nH]c2=O)nn1 [1-5), 2′-deoxy-5-[1-((o-methylphenyl)methyl)-1H-1,2,3-triazol-4-yl]-uridine] | – |
| – | Unstable white opaque gel | 1 wt % | – | – | – | Cc1cccc(Cn2cc(-c3cn([C@H]4C[C@H](O)[C@@H](CO)O4)c(=O)[nH]c3=O)nn2)c1 [1-6), 2′-deoxy-5-[1-((m-methylphenyl)methyl)-1H-1,2,3-triazol-4-yl]-uridine] | – |
| – | Unstable white opaque gel | 2 wt % | – | – | – | CCc1ccccc1Cn1cc(-c2cn([C@H]3C[C@H](O)[C@@H](CO)O3)c(=O)[nH]c2=O)nn1 [1-8), 2′-deoxy-5-[1-((o-ethylphenyl)methyl)-1H-1,2,3-triazol-4-yl]-uridine] | – |
